Experimental data as given in patent publication US20250073215A1 (priority 2023, published 2025).

Columns and labels:
BEAS-2B cells = conditions: cited from earlier work
[1] = test system: human bronchial epithelial cells (BEAS-2B cells); conditions: in vitro; cited from earlier work
cholinergic receptor = conditions: when interacting with the cholinergic receptor ligand; cited from earlier work
[2] = cited from earlier work

SMILES | effect on CRP expression compared with nicotine (BEAS-2B cells; BEAS-2B cells) | effect on tumour development and metastasis compared with nicotine (BEAS-2B cells; NF-κB p65, EGFR, MET by immunoblotting and real-time PCR) | cancer-related proteins (CRPs) with differential expression compared with control group (BEAS-2B cells; transcriptome sequencing, BEAS-2B cells) | sensitivity of BEAS-2B cells (cytotoxicity) compared with nicotine [1] | antinociceptive effects (cholinergic receptor) | satisfaction of nicotine craving compared with previously used nicotine products (100 individuals, twice a day for 60 days, participants' opinion) | addictiveness (conclusion of the study) | lethal dose for humans [2]
Cc1ccc([C@@H]2CCCN2C)cn1 [(S)-2-Methyl-5-(1-methyl-2-pyrrolidinyl)pyridine] | greater negative effect on CRP expression than nicotine | greater negative effect on tumour development and metastasis than nicotine | 1208 | more sensitive | displays antinociceptive effects | faster | not addictive | 
CN1CCC[C@H]1c1cccnc1 [Nicotine, 3-[(2S)-1-methyl-2-pyrrolidinyl]pyridine] |  |  |  |  |  |  |  | 50 to 100 mg
